# Reference: publication PMC13490399, “Induced ubiquitination of the partially disordered estrogen receptor alpha via a 14-3-3 directed molecular glue-PROTAC” (Nature Communications, 2026)
# pEC50, pIC50: −log10 of the molar value. “Also recorded” adds a separate entry of the source.
# Columns and labels:
# 14-3-3/ERα complex [1] = molecular target: 14-3-3/ERα complex (Homo sapiens, UniProt P03372+P31947); test: FA 14-3-3 titration to ERα peptide with compound, with or without VCB (14-3-3/ERα stabilization); format: binding; conditions: for stabilization of the 14-3-3/ERα interaction / stabilization of the 14-3-3/ERα complex with VCB, VCB recruitment: 1 µM compound; for stabilization of the 14-3-3/ERα interaction: without VCB; for stabilization of the 14-3-3/ERα complex with VCB, VCB recruitment: 5 µM VCB
# [2] = molecular target: His-tagged VCB complex / biotinylated 14-3-3γ / ERα peptide (Homo sapiens, UniProt P03372+P40337+P61981); test: TR-FRET assay of VCB recruitment to 14-3-3γ with ERα peptide; format: binding; conditions: 20 µM ERα peptide, 50 nM His-VCB, 50 nM biotinylated 14-3-3γ
# [3] = molecular target: 14-3-3ζ/ERα(LBD_F) complex with CRL2^VHL (Homo sapiens, UniProt P03372+P40337+P63104, F591R/P592R/S305A); test: In vitro ubiquitination assay (SDS-PAGE, western blot, Alexa Fluor 488 ubiquitin); format: biochemical; conditions: for ubiquitination of the 14-3-3ζ/ERα(LBD_F) complex: Coomassie SDS–PAGE, quantified at 15 min
# Experimental: Briefly, the 14-3-3ζ/ERα^(LBD_F) complex was incubated with recombinantly expressed and purified UBE1, UBE2D2, UBE2R1, CRL2^VHL and ubiquitin in the presence of ^MGPROTACs and analysed time-dependently using Coomassie-stained SDS–PAGE (Fig. 6a). Ubiquitin conjugation was rapid with higher molecular weight species evident within 5 min (Supplementary Fig. 21) and were quantified at 15 min by Coomassie-stained SDS–PAGE (Fig. 6b, c and Supplementary Fig. 22).
# UBE2D2 was selected as a representative of the promiscuous UBE2D family which is known to work with Cullin RING E3 ligases such as CRL2^VHL[48]–[52]. The UBE2R family is known to be more apt at extending polyubiquitin chains[49]–[51], however recent studies have shown that UBE2R1 and UBE2R2 are also capable of installing the first ubiquitin on degrader-targeted substrates with CRL2^VHL[53],[54].
# The reaction was quenched with reducing SDS sample buffer. The protein species were resolved by SDS-PAGE on a 10% bis-tris NuPAGE gel using MOPS running buffer, run at 175 V for 50 min. […] Proteins were transferred to a nitrocellulose membrane either by wet transfer at 90 V for 90 min, or using an iBlot 2 Gel Transfer Device (Invitrogen). […] For an example of presentation of the full scan blots, see Supplementary Fig. S23 or the Source Data file.
# NanoLuc–VHL [4] = molecular target: T1, NanoLuc–VHL (Homo sapiens, UniProt P40337); test: cell-based; conditions: IC50, VHL probe displacement (BRET), live (non-permeabilized) MCF-7 cells, 4 h
# NanoLuc–VHL [5] = molecular target: T1, NanoLuc–VHL; conditions: MCF-7 cells, in-cell VHL target engagement
# 14-3-3/ERα complex [6] = test: 14-3-3 immunoprecipitation–mass spectrometry (IP–MS) in MCF-7 cells; conditions: MCF-7, 10 μM CV2a, 24 h; not statistically significant (p > 0.05)
# 14-3-3σ/ERα complex [7] = molecular target: T2, 14-3-3σ/ERα complex (Homo sapiens, UniProt P03372+P31947); test: FA compound titration to 14-3-3σ/ERα phosphopeptide complex; format: binding; conditions: 1 µM 14-3-3σ and 10 nM ERα peptide
# 14-3-3σ/ERα complex [8] = molecular target: T2, 14-3-3σ/ERα complex; conditions: previously reported; read-out: EC50, binding to the 14-3-3σ/ERα complex; cited from earlier work
smiles,measurement,setting,value
COCC1CCC2C1=CC1(C)C(=C(C(C)CNC(C)=O)CC1O)C(OC1OC(CO)C(O)C(O)C1O)C(O)C2C (stereo not drawn),stabilization of the 14-3-3/ERα interaction,14-3-3/ERα complex [1],stabilizes the 14-3-3/ERα interaction
C=CC(C)(C)OCC1OC(OC2C3=C(C(C)CNC(=O)CCCCCCCCCCCC(=O)NC(C(=O)N4CC(O)CC4C(=O)NCc4ccc(-c5scnc5C)cc4)C(C)(C)C)CC(O)C3(C)C=C3C(COC)CCC3C(C)C2O)C(O)C(O)C1O (stereo not drawn) [(S-OH)-CV2a],"stabilization of the 14-3-3/ERα complex with VCB, VCB recruitment",14-3-3/ERα complex [1],failed to recruit VCB
same,stabilization of the 14-3-3/ERα interaction,14-3-3/ERα complex [1],stabilized the 14-3-3/ERα complex similarly to CV2a
same,"VCB recruitment to 14-3-3, TR-FRET signal",[2],no TR-FRET signal
same,ubiquitination of the 14-3-3ζ/ERα(LBD_F) complex,[3],completely abrogated ubiquitination
C=CC(C)(C)OCC1OC(OC2C3=C(C(C)CNC(=O)CCC(=O)NC(C(=O)N4CC(O)CC4C(=O)NCc4ccc(-c5scnc5C)cc4)C(C)(C)C)CC(O)C3(C)C=C3C(COC)CCC3C(C)C2O)C(O)C(O)C1O (stereo not drawn) [CV0a],"stabilization of the 14-3-3/ERα complex with VCB, VCB recruitment",14-3-3/ERα complex [1],negatively cooperative
same,pIC50,NanoLuc–VHL [4],< 5.00
C=CC(C)(C)OCC1OC(OC2C3=C(C(C)CNC(=O)CCCCCCCCCCCC(=O)NC(C(=O)N4CC(O)CC4C(=O)NCc4ccc(-c5scnc5C)cc4)C(C)(C)C)CC(O)C3(C)C=C3C(COC)CCC3C(C)C2O)C(O)C(O)C1O (stereo not drawn) [CV2a],"enhancement of ERα binding to 14-3-3, two-dimensional FA titration",14-3-3/ERα complex [1]; CV2a titration in the absence of VCB,up to 2.5 fold
same,"enhancement of ERα binding to 14-3-3, two-dimensional FA titration",14-3-3/ERα complex [1]; high CV2a and VCB concentrations,over 23 fold
same,"VCB recruitment to 14-3-3, TR-FRET signal",[2],unable to recruit VHL in the absence of ERα peptide; also recorded: extended recruitment window
same,ubiquitination of the 14-3-3ζ/ERα(LBD_F) complex,[3],robust polyubiquitination
same,cell permeability,NanoLuc–VHL [5],cell-permeable
same,ERα enrichment in the 14-3-3 pull-down,14-3-3/ERα complex [6],~ 2.5 fold
C=CC(C)(C)OCC1OC(OC2C3=C(C(C)CNC(=O)CCOCCOCCOCCC(=O)NC(C(=O)N4CC(O)CC4C(=O)NCc4ccc(-c5scnc5C)cc4)C(C)(C)C)CC(O)C3(C)C=C3C(COC)CCC3C(C)C2O)C(O)C(O)C1O (stereo not drawn) [CV2p],binding to the 14-3-3/ERα complex,14-3-3σ/ERα complex [7],highest apparent potency
same,ubiquitination of the 14-3-3ζ/ERα(LBD_F) complex,[3],robust polyubiquitination
same,E2 requirement of ubiquitination,[3]; UBE2D2 vs UBE2R1,observed only with UBE2D2
same,ubiquitination of assembled complex vs apo-14-3-3,[3]; up to 24 h,preferential ubiquitination of the assembled 14-3-3ζ/ERα^(LBD_F) complex over apo-14-3-3
C=CC(C)(C)OCC1OC(OC2C3=C(C(C)CNC(=O)CCCCCCCCCCCCCCCCCC(=O)NC(C(=O)N4CC(O)CC4C(=O)NCc4ccc(-c5scnc5C)cc4)C(C)(C)C)CC(O)C3(C)C=C3C(COC)CCC3C(C)C2O)C(O)C(O)C1O (stereo not drawn) [CV3a],"VCB recruitment to 14-3-3, TR-FRET signal",[2],markedly reduced recruitment
same,ubiquitination of the 14-3-3ζ/ERα(LBD_F) complex,[3],robust polyubiquitination
"C=CC(C)(C)OC[C@H]1O[C@H](O[C@@H]2C3=C([C@H](C)CNC(C)=O)C[C@H](O)[C@]3(C)/C=C3/[C@@H](COC)CC[C@H]3[C@@H](C)[C@H]2O)[C@H](O)[C@@H](O)[C@@H]1O [FC-NAc, 3′-deacetylated fusicoccin N-acetyl]",pEC50,14-3-3σ/ERα complex [8],7.82
"CC(=O)N[C@H](C(=O)N1C[C@H](O)C[C@H]1C(=O)NCc1ccc(-c2scnc2C)cc1)C(C)(C)C [VH032, reference compound]",binding to the 14-3-3/ERα complex,14-3-3σ/ERα complex [7],did not engage the 14-3-3/ERα complex
